The text below walks through data of patent US20160281089A1, “PREVENTION OF VIRAL INFECTIVITY” (priority 2005, published 2016).

For data set [1], the target named is T1, RNase H activity of HIV RT/RNaseH (Human immunodeficiency virus type 1 group M subtype B, UniProt P04585). Put plainly: Permeabilized HIV virions with ODN A and Illimaquinone, viral RNA degradation by real-time PCR. The conditions noted are these: 150 μM Illimaquinone, 50 nM ODN A, 0.1% NP-40 permeabilized virions, 30 min 37° C., without added RT/RNaseH. For orientation: In qPCR the cycle at which signal appears reflects the starting amount.

In data set [2] the target is T1, RNase H activity of HIV RT/RNaseH. More on the design: the HIV RT/RNase H is a heterodimer of p66 and p51 with and without RNase H; endogenous in cells; host or cells: permeabilized HIV virions (virion-associated enzyme); panel B has added recombinant RT/RNaseH at 0.05 units/µl. The conditions noted are these: previously described; cited from earlier work.
For data set [3], the system named is HIV virions. The experiment in a line: ODN-mediated cleavage of viral RNA in intact HIV virions (real-time PCR, RT-PCR, agarose gel). The class given is biochemical. Conditions: 0.5 μM ODN, intact HIV virions, RPMI medium, 6 hours.
The test system of data set [4] is HIV virions. Put plainly: Infectivity of ODN-pre-incubated HIV virions in C81-66/45 cells. The conditions noted are these: for binding/uptake of pre-treated virions by host cells: pre-incubation 4 hours, HIV RNA in infected cells 1 hour post-infection. The class given is cell-based. The protocol:
As a next step we investigated the antiviral effect of ODNs by testing the infectivity of treated virions in cell culture studies. We used ODN A, ODN T, as PPT and ODN CO. 2×10^5 C81-66/45 cells were infected with virions pre-incubated with different ODNs at 0.01 MOI for 1, 2 or 4 hours prior to infection. RNA was extracted from infected cells and HIV replication was analysed by real-time PCR 3 days post-infection.
To test the specificity of suppression of viral replication, the effect of ODN A on the infectivity of virions was compared with control ODNs. Virions were pre-treated with the ODNs and HIV replication in infected cells was analysed by real-time PCR, 5 days (FIG. 6A) or 20 days post-infection (FIG. 6B) and by measuring p24 production in the supernatant of the infected cells (FIG. 6C).
(A) HIV virions were incubated with 0.5 μM of ODNs for 1, 2 or 4 hours. C81-66/45 cells were infected with pre-incubated virions, at 0.01 MOI. RNA was extracted from infected cells and HIV replication was analysed by real-time PCR, 3 days post-infection (p.i.).
(B) The same experiment as in (A) was performed with ODN T, ODN CO, asPPT and ODN A pre-treated virions.
(D) C81-66145 cells were infected with virions pre-incubated with 0.5 or 5 μM of ODNs for 4 h, at an MOI of 1. RNA was extracted from infected cells and HIV replication was analysed by real-time PCR, 3 days post-infection.
(E) C81-66/45 cells were infected with virions pre-incubated with ODN A and ODN Sc for 4 h, at an MOI of 0.01. RNA was extracted from infected cells and HIV replication was analysed by real-time PCR, 1 h and 24 h post-infection. (F) The same experiment as in (E) was performed except for using ODN T, ODN B and ODN A, 1 hour post-infection.
C81-66/45 cells were infected with virions pre-incubated with ODN A, ODN T, ODN CO or as PPT for 4 h, at MOI of 0.01. RNA was extracted from infected cells and HIV replication was analysed by real-time PCR, 5 days p.i. (A), and 20 days p.i. (B); by measuring p24 production in the medium of the infected cells (C) or by RT-PCR, 11 days p.i. (D).

The next data set concerns SFFV. The experiment in a line: NIH 3T3 cells infected with ODN-pretreated SFFV. The class given is cell-based. Conditions: three days post-infection, real-time RT-PCR. An excerpt:
As next step we investigated the antiviral effect of ODNs by testing pre-treated virions for residual infectivity as has been described before for HIV particles. SFFV particles were pretreated with ODN M or its variants and used to infect NIH 3T3 cells. After three days RNA was extracted from infected cells and from the supernatants and SFFV was quantified by real-time RT-PCR and analysis of amplification products (FIG. 9b).
b. NIH 3T3 cells were infected with SFFV pretreated with various ODNs. After three days the cells and supernatants were harvested and analyzed for SFFV RNA levels by quantitative real time RT-PCR (top) and RT-PCR (bottom) using GAPDH for comparison.

For `C=C1CCC[C@H]2[C@](C)(CC3=C(O)C(=O)C=C(OC)C3=O)[C@@H](C)CC[C@]12C` [Illimaquinone], the “ODN A-mediated viral RNA cleavage in presence of Illimaquinone” value in data set [1] is “failed to induce cleavage”. Moreover, in data set [2], the “inhibition of RNase H activity of HIV RT/RNaseH” value was “specifically inhibit the RNase H activity”.

As for “AAAAGAAAAGGGGGGACTGGTTGGGTTTTCCCTTCCAGTCCCCCCTTTTCTTTT (chemistry not given here) [ODN T, passenger strand fully complementary to the antisense strand]”, in the data set with HIV virions [3], the “amount of undigested viral RNA (real-time PCR, primers covering PPT region)” value (“amount of undigested viral RNA” below) was “less efficient cleavage of the viral RNA”. In addition, the “binding/uptake of pre-treated virions by host cells” value in the data set on HIV virions [4] is listed as “uptake similar to ODN A”. Also, the “HIV replication in infected cells (real-time PCR)” value in the data set on HIV virions [4] (virions pre-incubated 4 hours with 0.5 μM ODN, 0.01 MOI, 3 days post-infection) was “low but detectable levels”.

Consider “TCTTTTTGCGCGCTTTGTTTGTTTTTTCTTTCATTCCCCCCTTTTTCT (chemistry not given here) [ODN CG, ODN M variant with a triple nucleotide change in the second strand (SFFV tests)]”, for which the “SFFV RNA in infected cells and supernatant” value in the data set with SFFV is “clearly less efficient”. The “amount of undigested viral RNA” value with HIV virions [3] is reported as “antiviral activity similar to ODN A”.

As for “TCTTTTTGGGGGGAATGTTTGTTTTTTCTTTCATTCCCCCCTTTTTCT (DNA, backbone and methylation of C not given here) [ODN S, ODN M variant, two nucleotide changes in the second strand]”, the “SFFV RNA in infected cells and supernatant” value with SFFV was “clearly less efficient”.

For “TTTCTTTTGGGGGGTTTGGTTGGGTTTTCCCTTCCAGTCCCCCCTTTTCTTT (chemistry not given here) [ODN B, one nucleotide removed from both 5′ and 3′ ends of ODN A]”, in the data set with HIV virions [3], the “amount of undigested viral RNA” value is listed as “less efficient cleavage of the viral RNA”. In the data set with HIV virions [4], the “binding/uptake of pre-treated virions by host cells” value is “uptake similar to ODN A”.

In the case of “TTTGGGGGGTTCTTCCTCCTTTCCTTTTTCGCCCGTCCGTTGCGTTGATTTTTT (chemistry not given here) [ODN Sc, reference compound]”, the “amount of undigested viral RNA” value in the data set with HIV virions [3] is recorded as “less efficient cleavage of the viral RNA”.

For the compound “TTTTCTTTTGCGCGCTTTGGTTGGGTTTTCCCTTCCAGTCCCCCCTTTTCTTTT (chemistry not given here) [ODN NT, triple substitution in the passenger strand at site complementary to CCCCCC]”, the “amount of undigested viral RNA” value in the data set on HIV virions [3] was “less efficient cleavage of the viral RNA”.

With “TTTTCTTTTGGGGGGACTGGTTGGGTTTTCCCTTCCAGTCCCCCCTTTTCTTTT (chemistry not given here) [ODN H, triple substitution in the passenger strand]”, the “amount of undigested viral RNA” value in the data set with HIV virions [3] is “less efficient cleavage of the viral RNA”.
